According to patent US6734165B2, “Method for re-sensitizing vancomycin resistant bacteria which selectively cleave a cell wall depsipeptide” (The Trustees of Columbia University in the City of New York, priority 2001, dated 2004):
Like-named read-outs stand apart in the source and are kept apart here.

Legend:
[1] = Hydrolysis of D—Ala—D—Lac depsipeptide derivative 5 in aqueous phosphate buffer, followed by HPLC; type: biochemical; conditions: substrate 5 0.5 mM, phosphate buffer pH 7.0, 37° C.; for effect on the rate of hydrolysis over buffer: peptides 12 mM
Experimental: The ability of peptide 4a in cleaving the substrate 5 was assessed in aqueous phosphate buffer pH=7 at 37° C. Stock solutions of 16 mM of 5 and 130 mM of peptide were made in water. Phosphate buffer solution of 25 mM was made by adjusting the pH of a K2HPO4 solution to 7.0 by addition of concentrated HCl. To a 1.5 mL glass vial (Waters) were added 5 μL stock solution of 5 and 15 μL stock solution of peptide, followed by 135 μL buffer. The volume was adjusted to 160 μL by addition of water. Vials were kept in an incubator at 37° C. and 2 μL aliquots were taken every 3 h. Each aliquot was diluted with water to 5 μL and 2 μL were injected in HPLC. Separation of components was carried out on a reverse phase column C18 (Waters) using a gradient water/acetonitrile (0.1% TFA).
Using HPLC and monitoring the p-NO2-phenyl derivative by UV at 275 nm, we could easily follow the disappearance of D—Ala—D—Lac derivative 5 and the formation of the hydrolyzed product 4. Under these conditions, we observed a 20% cleavage of the depsipeptide in 24 hrs. […] This proves that the whole structural assembly is necessary for the reaction to occur and that the reaction is not an artifact resulted by a change in the pH of the media due to the presence of the amine functionality.
N-acylated prolinol derivatives (FIG. 5) are the simplest structures that could fulfill such requirements. Their primary alcohol functionality forms an internal H-bond with the amide, the structures allow for the addition of the […] (NH2) through various linkers and moreover, are chiral molecules. The derivatives were tested for their ability to cleave 5 in aqueous phosphate buffer pH=7.0 at 37° C. (FIG. 6). […] One explanation for the higher activity of the very simple molecule SProC5 compared to 4a is the enhanced nucleophilicity of its hydroxyl (H position in H^1 NMR 7.59 ppm vs 6.62 ppm). Activity declines in the series with the decrease of the chain length from 5 carbons to 1 carbon. […] To confirm these speculations we compared the chemical shifts of the OH and NH in the H^1 NMR spectra of the NHBoc protected SProCn series (Table 1).
Substrate 5 was used at 0.5 mM, while prolinol derivatives were run at 12 mM. The graph is the average of three separate assays (FIG. 6).
The ability of peptide 4a in cleaving the substrate 5 was assessed in aqueous phosphate buffer pH 7 at 37° C. Using HPLC and monitoring the p-NO2-phenyl derivative by UV at 275 nm, we could easily follow the disappearance of D—Ala—D—Lac derivative 5 and the formation of the hydrolyzed product 4. […] A 20% hydrolysis of D—Ala—D—Lac in the presence of 4a was observed after 24 h.
The prolinol derivatives were additionally, tested for their ability to cleave 5 in aqueous phosphate buffer pH 7.0 at 37° C. […]

[2] = Combinatorial library screening on beads against red dye-labeled substrate 1; conditions: substrate 1 in 12DCE or DMF, 3-5 days
Experimental: Substrate 1 is treated with combinatorial libraries of potential nucleophiles on solid phase synthesis beads (2), and then those library members are selected that covalently linked the dye to a bead (3). This could be possible assuming that noncovalently bound material would be washed away with a polar solvent (Scheme 2). [drawing 4]
The assay for screening these libraries against 1 involves shaking a desired amount of library beads with the solution of labeled substrate for a period of time. To the library beads were added 200 μL solution of substrate 1 in 12DCE (or DMF), and the mixture was rotated for 3-5 days in a small glass vial. DMF was added and shaking continued for 1 h. Solvent was removed and the washing was repeated several times. One wash was performed with one drop of benzylamine added to DMF to remove any remaining physically bound substrate. The strongly red beads were picked individually in 1.5 μL DMF (in 25 μL capillaries) and photolysed for 6 h under a short wave UV lamp. Decoding was achieved by injecting the content of each capillary in EC-GC and comparing the chromatogram to a standard (20,21).
After the reaction occurred, the label-carrying beads were selected and analyzed (20,21). The initial assays were performed in 1,2-dichloroethane (12DCE) at a concentration of 2.3 mM in substrate 1.
The assay for screening these libraries against 1 involved shaking a desired amount of library beads with the solution of labeled substrate for a period of time. After the reaction occured, the label-carrying beads were selected and analyzed. The initial assays were performed in 1,2-dichloroethane (12DCE) at a concentration of 2.3 mM in substrate 1. After 3 days of shaking, the beads were extensively washed with dimethylformamide (DMF) and once with a diluted solution of benzylamine in DMF to remove any physically bound substrate (FIGS. 9A and 9B).

enterococcus = conditions: cited from earlier work
[3] = incorporation of D—Ala—D—Lac by VRE; cited from earlier work

Compound | activity in bead screening (red beads / active sequence) [2] | effect on the rate of hydrolysis over buffer [1] | other results
BnNHL—Lys—D—Pro—L—SerCONMe2 [4a] | – | – | cleavage of the depsipeptide in 24 hrs ([1]; compound 12 mM, 24 h): 20%
L—Lys—D—Pro—L—Ser dimethylurea | an active sequence found more frequently in the assays | – | –
D—Asn—L—Lys—L—Pro—L—SerNH2 | active sequence | – | –
D—Lys—L—Pro—D—Ser dimethylurea | never found as an active sequence | – | –
BnNHL—Lys—D—Pro—L—Ser(tBut)CONMe2 [compound 7] | – | No significant effect | –
BnNHL—LysNHAc [compound 8] | – | No significant effect | –
BnNHD—Pro—L—Ser(OH)NHCONMe2 [compound 6] | – | No significant effect | –
CN[C@H](CC(C)C)C(=O)N[C@H]1C(=O)N[C@@H](CC(N)=O)C(=O)N[C@H]2C(=O)N[C@H]3C(=O)N[C@H](C(=O)N[C@H](C(=O)O)c4cc(O)cc(O)c4-c4cc3ccc4O)[C@H](O)c3ccc(c(Cl)c3)Oc3cc2cc(c3O[C@@H]2O[C@H](CO)[C@@H](O)[C@H](O)[C@H]2O[C@H]2C[C@](C)(N)[C@H](O)[C@H](C)O2)Oc2ccc(cc2Cl)[C@H]1O [vancomycin] | – | – | MIC of vancomycin (enterococcus; 10% of the peptidoglycan altered to D—Ala—D—Lac): 32 µg/mL; MIC of vancomycin (enterococcus; unaltered peptidoglycan): 2 µg/mL; decrease of affinity of vancomycin for the peptidoglycan layer [3]: over 1000 fold
